Experiment [1] addresses T1, Apolipoprotein L1 (Homo sapiens, UniProt O14791).
T1 sequence (O14791 whole entry): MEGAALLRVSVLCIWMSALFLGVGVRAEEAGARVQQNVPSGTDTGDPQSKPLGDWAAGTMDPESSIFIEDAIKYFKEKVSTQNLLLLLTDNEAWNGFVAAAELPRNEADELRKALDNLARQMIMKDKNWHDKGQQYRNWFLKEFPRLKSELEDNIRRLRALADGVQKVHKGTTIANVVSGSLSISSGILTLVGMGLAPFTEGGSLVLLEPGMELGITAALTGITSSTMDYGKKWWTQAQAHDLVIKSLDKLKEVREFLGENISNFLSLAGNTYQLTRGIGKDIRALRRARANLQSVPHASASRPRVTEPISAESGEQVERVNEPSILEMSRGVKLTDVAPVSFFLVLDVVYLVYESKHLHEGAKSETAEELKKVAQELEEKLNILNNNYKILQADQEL
Description: Inhibition of APOL1 (unknown origin) in HEK293 cells assessed as thallium influx incubated for 30 mins by FLIPR based thallium influx assay. The format is cell-based.

Experiment [2] has as its system Trypanosoma brucei. Description: Trypanocidal activity against bloodstream forms of Trypanosoma brucei using recombinant APOL1 assessed as cell viability incubated for 16 hrs by cell lysis based alamar blue assay. The format is functional, organism-based. In general terms: Resazurin is reduced to fluorescent resorufin, in cell work by metabolically active cells.

The source of these data is ChEMBL document CHEMBL4665904, “Novel APOL1 Inhibitors for Treating Kidney Diseases” (ACS Med Chem Lett, 2020).

Some results are limits rather than exact numbers.

By IC50 is commonly meant the concentration needed to halve the response being measured.

As to `O=C(CCc1c(-c2ccccc2)[nH]c2c(F)cccc12)N[C@@H]1C(=O)NC[C@H]1O`, the IC50 in experiment [1] and in experiment [2] was < 250 nM each time.
As for `O=C(CCc1c(-c2ccc(F)cc2)[nH]c2c(F)cc(F)cc12)N[C@@H]1C(=O)NC[C@@H]1O`, the IC50 in experiment [1] and in experiment [2] was < 250 nM each time.
Regarding `O=C(CCc1c(-c2ccccc2)[nH]c2cc(F)c(F)cc12)N[C@@H]1C(=O)NC[C@H]1O`, the 50% inhibitory concentration (IC50) in experiment [1] and in experiment [2] was < 250 nM throughout.
Take `COc1ccc(-c2[nH]c3ccccc3c2CCC(=O)N[C@@H]2C(=O)NC[C@H]2O)cc1`: the IC50 in experiment [1] and in experiment [2] was < 250 nM in each case.
As for `N#Cc1ccc(-c2[nH]c3c(F)cc(F)cc3c2CCC(=O)N[C@H]2CCNC2=O)cc1`, the IC50 in experiment [1] and in experiment [2] was < 250 nM throughout.
On to `N#Cc1cc(F)cc2c(CCC(=O)N[C@@H]3C(=O)NC[C@H]3O)c(-c3ccc(F)cc3)[nH]c12`, for which the half-inhibitory concentration (IC50) in experiment [1] and in experiment [2] was < 250 nM throughout.
